Data taken from PubChem BioAssay AID330 (DTP/NCI, 2004).
Several values for one entry are separate records, joined by “and”; a condition that tells them apart may be missing. Identical values can stand only once. Inconclusive results and toxic doses are left out.

System: P388 leukemia ip, CD2F1 mice, survival T/C
Experiment: NCI In Vivo Anticancer Drug Screen. Data for tumor model P388 Leukemia (intraperitoneal) in CD2F1 (CDF1) mice
Conditions: endpoint: median survival time, higher = longer survival
In short: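 Mice carrying the transplanted tumor received test compound or vehicle. Survival was recorded in each group, and the value is the treated-group measurement divided by that of the vehicle-treated control group.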

[1] = dose: 6.25 mg/kg/injection, schedule: Q01DX009 (ip), vehicle: saline with Tween-80
[2] = dose: 12.5 mg/kg/injection, schedule: Q01DX009 (ip), vehicle: saline with Tween-80
[3] = dose: 25.0 mg/kg/injection, schedule: Q01DX009 (ip), vehicle: saline with Tween-80

Cc1c2cccc(Sc3ccccc3)c2c2c3c(cccc13)[S+](c1ccccc1)C2 (stereo unspecified)
T/C [1]: 113 % of control | T/C [2]: 115 % of control

N#C/C(=C\C=C\c1ccccc1)c1nc(-c2ccc(Cl)cc2)cs1
T/C (dose: 50.0 mg/kg/injection, schedule: Q01DX009 (ip), vehicle: saline): 91 % of control | T/C (dose: 100.0 mg/kg/injection, schedule: Q01DX009 (ip), vehicle: saline): 91 % of control | T/C (dose: 200.0 mg/kg/injection, schedule: Q01DX009 (ip), vehicle: saline): 88 % of control

COc1cccc(CCC(=O)O)c1OC
T/C (dose: 25.0 mg/kg/injection, schedule: Q01DX009 (ip), vehicle: water): 103 % of control | T/C (dose: 50.0 mg/kg/injection, schedule: Q01DX009 (ip), vehicle: water): 100 % of control | T/C (dose: 100.0 mg/kg/injection, schedule: Q01DX009 (ip), vehicle: water): 108 % of control | T/C (dose: 200.0 mg/kg/injection, schedule: Q01DX009 (ip), vehicle: water): 91 % of control | T/C (dose: 400.0 mg/kg/injection, schedule: Q01DX009 (ip), vehicle: water): 92 % of control

CCOC(=O)/C(C=NCC(C)(CN=C/C(C(=O)OCC)=C(/C)O)CN=C/C(C(=O)OCC)=C(/C)O)=C(\C)O (stereo unspecified)
T/C (dose: 50.0 mg/kg/injection, schedule: Q01DX009 (ip), vehicle: Klucel (hydroxypropylcellulose) (HPC)): 93 % of control | T/C (dose: 100.0 mg/kg/injection, schedule: Q01DX009 (ip), vehicle: Klucel (hydroxypropylcellulose) (HPC)): 90 % of control | T/C (dose: 200.0 mg/kg/injection, schedule: Q01DX009 (ip), vehicle: Klucel (hydroxypropylcellulose) (HPC)): 87 % of control

CO/N=C1\CC(C)N2C(=O)C(C(C)C)NC(=O)C(NC(=O)c3c4nc5c(C(=O)NC6C(=O)NC(C(C)C)C(=O)N7C(C)CC(O)C7C(=O)N(C)CC(=O)N(C)C(C(C)C)C(=O)OC6C)ccc(C)c5oc-4c(C)c(=O)c3N)C(CO)OC(=O)C(C)N(C)C(=O)CN(C)C(=O)C12 (stereo unspecified)
T/C (dose: 12.5 mg/kg/injection, schedule: Q01DX005 (ip), vehicle: saline with Tween-80): 161 % of control | T/C (dose: 25.0 mg/kg/injection, schedule: Q01DX005 (ip), vehicle: saline with Tween-80): 180 % of control

N#CCCN/N=C\c1ccc2c(c1)OCO2
T/C (dose: 100.0 mg/kg/injection, schedule: Q04DX003 (ip), vehicle: saline with Tween-80): 102 % of control | T/C (dose: 200.0 mg/kg/injection, schedule: Q04DX003 (ip), vehicle: saline with Tween-80): 96 % of control | T/C (dose: 400.0 mg/kg/injection, schedule: Q04DX003 (ip), vehicle: saline with Tween-80): 92 % of control

c1ccc(P(CCP(c2ccccc2)c2ccccc2)c2ccccc2)cc1
T/C (dose: 25.0 mg/kg/injection, schedule: Q04DX003 (ip), vehicle: Klucel (hydroxypropylcellulose) (HPC)): 117 % of control | T/C (dose: 100.0 mg/kg/injection, schedule: Q04DX003 (ip), vehicle: Klucel (hydroxypropylcellulose) (HPC)): 153 % of control | T/C (dose: 200.0 mg/kg/injection, schedule: Q04DX003 (ip), vehicle: Klucel (hydroxypropylcellulose) (HPC)): 161 % of control

CC(=O)c1cccc(OC(=O)Nc2ccccc2)c1
T/C (dose: 50.0 mg/kg/injection, schedule: Q01DX005 (ip), vehicle: saline with Tween-80): 96 % of control | T/C (dose: 100.0 mg/kg/injection, schedule: Q01DX005 (ip), vehicle: saline with Tween-80): 90 % of control | T/C (dose: 200.0 mg/kg/injection, schedule: Q01DX005 (ip), vehicle: saline with Tween-80): 98 % of control

COc1ccc2nc(-c3ccc(Cl)cc3)cc(C(=O)O)c2c1
T/C (dose: 50.0 mg/kg/injection, schedule: Q01DX005 (ip), vehicle: Klucel (hydroxypropylcellulose) (HPC)): 99 % of control | T/C (dose: 100.0 mg/kg/injection, schedule: Q01DX005 (ip), vehicle: Klucel (hydroxypropylcellulose) (HPC)): 100 % of control | T/C (dose: 200.0 mg/kg/injection, schedule: Q01DX005 (ip), vehicle: Klucel (hydroxypropylcellulose) (HPC)): 100 % of control

COC(=O)[CH](C[N+](=O)[O-])[Hg][Cl] (stereo unspecified)
T/C (dose: 3.12 mg/kg/injection, schedule: Q01DX009 (ip), vehicle: saline with Tween-80): 100 % of control | T/C [1]: 100 % of control | T/C [2]: 95 % of control

Nc1nc2c(ccc3ccccc32)s1
T/C [3]: 115 % of control | T/C (dose: 50.0 mg/kg/injection, schedule: Q01DX009 (ip), vehicle: saline with Tween-80): 102 % of control and 108 % of control and 97 % of control | T/C (dose: 100.0 mg/kg/injection, schedule: Q01DX009 (ip), vehicle: saline with Tween-80): 100 % of control and 110 % of control and 93 % of control | T/C (dose: 200.0 mg/kg/injection, schedule: Q01DX009 (ip), vehicle: saline with Tween-80): 103 % of control and 108 % of control and 93 % of control

O=P(c1ccccc1)(c1ccccc1)c1ccccc1.O=P(c1ccccc1)(c1ccccc1)c1ccccc1.O=P(c1ccccc1)(c1ccccc1)c1ccccc1.O=P(c1ccccc1)(c1ccccc1)c1ccccc1.[O-][Cl+3]([O-])([O-])O.[Zn+2]
T/C (dose: 50.0 mg/kg/injection, schedule: Q01DX001 (ip), vehicle: saline with Tween-80): 104 % of control | T/C (dose: 100.0 mg/kg/injection, schedule: Q01DX001 (ip), vehicle: saline with Tween-80): 103 % of control and 90 % of control

C#CC1OCCCO1
T/C (dose: 60.0 mg/kg/injection, schedule: Q01DX005 (ip), vehicle: saline): 100 % of control | T/C (dose: 120.0 mg/kg/injection, schedule: Q01DX005 (ip), vehicle: saline): 106 % of control

O=C(NC(=O)c1c(F)cccc1F)Nc1nc2ccccc2s1
T/C [1]: 113 % of control | T/C [2]: 100 % of control | T/C [3]: 105 % of control
